The test system of one series is NMDA receptor. Put plainly: NMDA receptor mediated spontaneous calcium oscillations in primary neurons. The conditions noted are these: 25 μM oligomer; presence or absence of 1 mM MgCl2 representing 100% control. Format: cell-based, rat. Here is the method:
(§1) To measure primary cortical neuron spontaneous calcium oscillation, rat primary cortical neurons were prepared from Sprague-Dawley rat embryos (E19). Cells were plated 25,000 cells/well onto 384 well poly-D-lysine coated FLIPR plates (Greiner Bio-One) in 25 μl/well Neurobasal media containing B27 supplement and 2 mM glutamine (day 1 in vitro, DIV1). Cells were grown for 11 days at 37° C. in 5% CO2 and fed with 25 μl of additional media on day 4 in vitro (“DIV04”) and day 8 in vitro (“DIV08”) for use on day 11 in vitro (“DIV11”). […] After 1 hr 20 μl of room temperature assay buffer was added and the cells were allowed to equilibrate to room temperature for 10 additional minutes and placed in the fluorescent imaging plate reader (FLIPR). Baseline signal (measurement of intracellular calcium) was read for 100 seconds (1 reading/second) before the addition of anti-sense oligomers. […] FLIPR signal was read for an additional 200 seconds (1 reading/second) after the addition of oligomer. A second 5 minute post addition plate read (300 one second points) on the FLIPR was conducted to allow for additional data capture. Raw data from the 5 minute read was exported and, using Excel, spike amplitude and frequency was calculated. Calculations were performed by measuring the average FLIPR signal over the 300 second read for control (non-treated) wells. […]

Series [1] deals with spontaneous neuronal activity. As to the kind of experiment: Electrophysiologic spontaneous neuronal activity in vitro (data not shown). Format: cell-based.
The subject of series [2] is central nervous system (CNS) network activity. Put plainly: CNS network activity in vivo (data not shown).
The test system of another series is AMPA receptor. As to the kind of experiment: AMPA receptor mediated spontaneous calcium oscillations in primary neurons. The series is classed as cell-based, rat. The conditions noted are these: 25 μM oligomer; presence or absence of 1 mM MgCl2 representing 100% control. Here is the method: as §1
Series [3] has as its system rat primary cortical neurons. As to the kind of experiment: Primary cortical neuron spontaneous calcium oscillation (FLIPR, fluo-4 AM). The settings on record: primary neuronal spontaneous calcium oscillations. The series is classed as cell-based. On the procedure:
as §1

“TGTgatgcaggaGTT (antisense TGTGATGCAGGAGTT; listed as DNA, chemistry not given here) [ASO-00007]”: in the series with NMDA receptor, the “inhibition of NMDA receptor mediated calcium oscillations” value is “not NMDA receptor”. Further, the “impact on electrophysiologic spontaneous neuronal activity in vitro” value in series [1] was “negatively impact”. For the same molecule, in series [2], the “impact on central nervous system (CNS) network activity in vivo” value is “negatively impact”. Moreover, in the series with AMPA receptor, the “inhibition of AMPA receptor mediated calcium oscillations” value is recorded as “inhibited AMPA receptor”.
In the case of “6-Cyano-7-nitroquinoxaline-2,3-dione [CNQX]”, in series [3] (CNQX 3 μM), the “reduction of calcium oscillations (total AMPA response in the assay)” value worked out at 20%.
As to `[Cl-].[Cl-].[Mg+2]` [MgCl2], the “reduction of calcium oscillations when NMDA receptor function was blocked” value in series [3] (1 mM MgCl2) is on record as “about 80%”.

For the origin of these results see US11761951B2, “Methods of selecting therapeutic molecules” (Bristol-Myers Squibb Company, priority 2015, dated 2023).
